In patent US20130324522A1, “INSECT ODORANT RECEPTOR ANTAGONISTS” (THE ROCKEFELLER UNIVERSITY, priority 2010, published 2013):

Assays:
[1] = target: T1, serotonin receptor (5HT3) (Mus musculus, UniProt P23979); assay: Ca2+-imaging of stable Flip-In T-Rex cell line 5HT3; type: cell-based; details: for inhibition at 4 µM: compound applied at 4 μM, read-out: Percent Inhibition 5HT3
T1 construct: Full-length cDNAs for mosquito (Anopheles gambiae) odorant receptor; expressed in transfected cells
T1 sequence (P23979 24-489): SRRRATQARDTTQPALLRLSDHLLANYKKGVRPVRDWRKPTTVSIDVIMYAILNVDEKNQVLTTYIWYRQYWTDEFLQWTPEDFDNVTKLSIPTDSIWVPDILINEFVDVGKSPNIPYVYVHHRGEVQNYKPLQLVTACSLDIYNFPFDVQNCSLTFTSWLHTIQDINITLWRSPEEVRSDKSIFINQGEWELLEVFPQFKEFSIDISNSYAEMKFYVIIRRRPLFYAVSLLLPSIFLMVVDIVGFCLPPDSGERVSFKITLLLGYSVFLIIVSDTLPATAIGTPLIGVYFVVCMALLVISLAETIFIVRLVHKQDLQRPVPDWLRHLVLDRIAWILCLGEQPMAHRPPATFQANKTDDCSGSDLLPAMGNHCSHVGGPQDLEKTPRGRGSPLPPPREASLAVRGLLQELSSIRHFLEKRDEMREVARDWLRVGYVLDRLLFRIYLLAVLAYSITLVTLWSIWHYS
Description: (§1) Full-length cDNAs for mosquito (Anopheles gambiae) odorant receptor (OR1, OR2, OR7, OR8, OR28), and fly (Drosophila melanogaster) odorant receptor (Or47a, Or83b), mouse TRP channel (TRPM8), and mouse serotonin receptor (5HT3) were obtained and subcloned into mammalian expression vectors. The following mammalian expression vectors were used:
(§2) Stable cell lines Or47a/Or83b and 5HT3 were generated from Flip-In T-Rex cells. Flip-In T-Rex-based cell lines were cultured in DMEM supplemented with these additional antibiotics: 6 μg/mL blasticidin and 100 μg/mL hygromycin.
(§3) Cells were trypsinized and split into 35 mm dishes 1 day before transfection. Confluent cells (60-70%) in 35 mm dishes were co-transfected with 1 μg of Or47a/Or83b plasmid in pcDNA5/FRT/TO/IRES plus the pOG44 plasmid or 1 μg of 5HT3 plasmid in pcDNA5/FRT/TO plus the pOG44 plasmid using lipofectamine 2000. Co-transfection of pOG44 and pcDNA5/FRT/TO/IRES or pcDNA5/FRT/TO allows expression of Flp recombinase and integration of the pcDNA5 plasmid into the genome via the FRT site. After one day of incubation, the transfected cells were transferred into 10 cm dishes with DMEM containing antibiotics: 20 μg/mL of hygromycin and 6 μg/mL of blasticidin. The concentration of Hygromycin was increased to 100 μg/mL when the population of cells became 30-40% confluent. The cells were cultured by changing medium every two days until cell clumps appeared. The clumps were picked and transferred into 96 well plates with DMEM containing 100 μg/mL of Hygromycin and 6 μg/mL of blasticidin. The cells were grown and transferred to 24 well plates, and ligand-evoked calcium increases were tested using the Hamamatsu FDSS6000 real time fluorescence plate reader.
(§4) Stable cell lines were cultured in 10 cm dishes, and confluent cells (70-80%) were trypsinized. 10,000 cells/20 μL were transferred into each well of 384-well plates coated with poly-D-lysine, and cultured for 2 days. For Flip-In T-Rex cells (cell lines expressing Or47a/Or83b and 5HT3), 5 μL of tetracycline (5 μg/mL) were added 1 day before the assay. 20 μL of Ca-4 dye was loaded into each well for 1.5 hr at room temperature in the dark, and the dye-loaded plates were subjected to Ca^2+-imaging using a Hamamatsu FDSS6000 real time fluorescence plate reader. Odorant solutions (9× final concentration) were prepared by dissolving 1M stock solutions into Hank's Buffered Salt Solution (HBSS), and 30 μL of odor solution was transferred to each well in 384-well plates.
(§5) Compounds ([…] in DMSO) were stored in 384-well plates, and last two columns (32 wells total) contained only DMSO. 200 nL of small compounds were transferred into the odorant plates before the assay using the Perkin-Elmer Janus workstation. The odorant plates were spun down to remove air bubbles, and placed on the FDSS6000 plate loader, and 5 μL of odorant solution was applied to the cell plate on the FDSS6000. Ca^2+ increase was monitored with fluorescence at 525 nm by excitation at 485 nm.

Or47a/Or83b = target: T2, Or47a/Or83b (Drosophila melanogaster, UniProt P81921+Q9VNB5); assay: Ca2+-imaging of stable Flip-In T-Rex cell line Or47a/Or83b; type: cell-based; details: for inhibition at 4 µM: compound applied at 4 μM, read-out: Percent Inhibition OR47a OR83b; for IC50: Table B, read-out: IC50 OR47a
T2 construct: Full-length cDNAs for mosquito (Anopheles gambiae) odorant receptor (OR1, OR2, OR7, OR8, OR28), and fly (Drosophila melanogaster) odorant receptor (Or47a, Or83b); expressed in transfected cells
T2 sequence (P81921 1-385): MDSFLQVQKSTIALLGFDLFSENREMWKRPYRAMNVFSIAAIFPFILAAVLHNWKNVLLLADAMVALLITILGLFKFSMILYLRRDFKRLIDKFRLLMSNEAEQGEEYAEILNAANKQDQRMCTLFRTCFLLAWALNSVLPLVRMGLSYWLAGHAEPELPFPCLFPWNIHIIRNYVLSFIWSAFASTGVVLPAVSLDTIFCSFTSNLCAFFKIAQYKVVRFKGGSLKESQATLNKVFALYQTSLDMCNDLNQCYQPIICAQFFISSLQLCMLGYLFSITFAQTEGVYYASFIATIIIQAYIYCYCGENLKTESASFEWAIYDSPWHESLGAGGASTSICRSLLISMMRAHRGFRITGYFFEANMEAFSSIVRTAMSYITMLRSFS
T2 sequence (Q9VNB5 1-486): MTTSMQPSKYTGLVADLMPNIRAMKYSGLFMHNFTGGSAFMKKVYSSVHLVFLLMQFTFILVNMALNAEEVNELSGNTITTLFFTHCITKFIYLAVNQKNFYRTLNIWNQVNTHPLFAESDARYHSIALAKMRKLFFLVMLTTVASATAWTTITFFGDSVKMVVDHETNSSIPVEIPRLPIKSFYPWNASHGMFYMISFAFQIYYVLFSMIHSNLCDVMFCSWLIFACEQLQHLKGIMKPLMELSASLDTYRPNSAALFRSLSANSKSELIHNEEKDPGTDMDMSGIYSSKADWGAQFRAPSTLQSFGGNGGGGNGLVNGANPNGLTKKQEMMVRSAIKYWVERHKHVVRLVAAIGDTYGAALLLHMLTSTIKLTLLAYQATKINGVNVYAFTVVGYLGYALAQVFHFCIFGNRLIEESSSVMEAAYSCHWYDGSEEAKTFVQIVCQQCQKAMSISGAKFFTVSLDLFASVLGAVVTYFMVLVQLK
Description: as §1, §2, §3, §4, §5

| SMILES | inhibition at 4 µM [1] [%] | inhibition at 4 µM (Or47a/Or83b) [%] | IC50 (Or47a/Or83b) [nM] | IC50 ([1]; Table B, read-out: IC50 5HT3) [nM] |
| --- | --- | --- | --- | --- |
| CCc1cc(N2CCCC2)nc(SCc2ccc(C(=O)N3CCOCC3)o2)n1 [RU-0047568] | 26 to 50 | 26 to 50 |  |  |
| C=CCNC(=O)C(NC(=O)c1cccc(C)c1)C1CCN(C(=O)c2cccc(Br)c2)CC1 (centres unmarked) [RU-0039123] | 26 to 50 | 51 to 74 | > 1000 |  |
| O=C(c1cccc(F)c1)N(Cc1c(-c2ccccc2)noc1N1CCCC1)CC1CCCO1 (centres unmarked) [RU-0037434] | 26 to 50 | 51 to 74 | > 1000 |  |
| CCN(CC)c1onc(-c2ccc(F)cc2)c1CN(CCCOC)C(=O)c1ccc2c(c1)OCO2 [RU-0036983] | 26 to 50 | 51 to 74 | > 1000 |  |
| Cc1cccc(Cn2ccnc2CN(C(=O)c2ccccc2F)C2CCCCC2)c1 [RU-0047851] | < 25 | 26 to 50 |  |  |
| C=CCN(Cc1nccn1Cc1ccccc1F)C(=O)c1cccc(F)c1 [RU-0058232] | 51 to 74 | 26 to 50 |  | > 1000 |
| COCCCN(Cc1c(-c2ccccc2)noc1N1CCCC1)C(=O)c1ccc(F)cc1 [RU-0037386] | 26 to 50 | 51 to 74 | > 1000 |  |
| O=C(c1c(F)c(F)cc(F)c1F)N1CCOC(Cc2ccccc2)C1 (centres unmarked) [RU-0050393] | 26 to 50 | 26 to 50 |  |  |
| CCOC(=O)c1c(NC(C)=O)c(-c2ccc(OC)cc2)cn1Cc1ccccc1 [RU-0077733] | < 25 | 26 to 50 |  |  |
